In patent US10774046B2, “Inhibitors for the treatment of cancer and related methods” (UNIVERSITY OF LOUISVILLE RESEARCH FOUNDATION, INC., priority 2017, dated 2020):

How the values were obtained:
human recombinant PFKFB4 = human recombinant PFKFB4 (Homo sapiens, UniProt Q16877); test: fructose-6-phosphate kinase activity of recombinant PFKFB4 (in vitro kinase assay); type: biochemical
Protocol: (§1) The fructose-6-phosphate kinase activity of human recombinant PFKFB4 in the presence of DMSO±indicated 5MPN concentrations was assayed as previously described. The activity of 5MPN against 97 kinases was examined using a commercially available active-site dependent competition binding assay core service (KINOMEscanEDGE) that quantifies the capacity of test agents to compete with an immobilized, active-site directed ligand using a DNA-tagged kinase and immobilized ligand and compound. For example, enzyme inhibition was studied using an ADP-Glo assay. The effect of MPN-2 on the activity of recombinant human PFKFB4 enzyme was examined in an ADP-Glo assay (Promega), which measures ADP formed from a kinase reaction. ADP is converted into ATP, which is converted into light by a luciferase. PFKFB4 protein was exposed to MPN-2 at indicated concentrations in the presence of ATP and fructose-6-phosphate and following manufacturer's instructions, ADP-Glo and kinase detections reagents were added. The data are shown as the decrease in luminescence caused by MPN-2 relative to DMSO.

PFKFB3 = PFKFB3 (Homo sapiens, UniProt Q16875); test: PFKFB3 kinase activity; type: biochemical; settings: 10 μM
Chain of PFKFB3 (Q16875 whole entry, species assumed): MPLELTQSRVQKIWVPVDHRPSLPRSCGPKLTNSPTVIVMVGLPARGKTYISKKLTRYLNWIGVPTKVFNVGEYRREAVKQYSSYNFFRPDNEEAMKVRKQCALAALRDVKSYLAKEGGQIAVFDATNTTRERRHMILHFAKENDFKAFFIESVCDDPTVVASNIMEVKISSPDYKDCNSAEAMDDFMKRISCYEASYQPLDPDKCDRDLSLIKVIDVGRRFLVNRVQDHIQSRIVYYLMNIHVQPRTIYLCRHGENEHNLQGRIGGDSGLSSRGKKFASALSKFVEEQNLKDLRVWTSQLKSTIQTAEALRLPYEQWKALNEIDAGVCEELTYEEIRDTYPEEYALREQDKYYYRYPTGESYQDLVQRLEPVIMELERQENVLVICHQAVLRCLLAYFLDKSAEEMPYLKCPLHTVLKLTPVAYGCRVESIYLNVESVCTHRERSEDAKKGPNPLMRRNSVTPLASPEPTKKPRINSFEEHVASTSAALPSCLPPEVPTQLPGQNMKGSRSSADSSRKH

[1] = tested on: panel of 97 protein kinases; test: KINOMEscan active-site dependent competition binding assay; settings: 10 μM; data not shown
Protocol: as §1

A549 = test: proliferation, viable cell count; type: cell-based, human; settings: A549, over 48 hours
Description: (§2) H460, H1299, H441, H522 and A549 non-small cell lung cancer (NSCLC), MDA-MB-231 (breast), LNCaP (prostatic) and HCT116 (colon) adenocarcinoma and Lewis lung carcinoma (LLC) cell lines were obtained from ATCC and used within 6 months of acquisition. PFKFB4^−/− ear pinna fibroblasts isolated from TamCre/loxP/PFKFB4^−/− mice were immortalized as described previously (Chesney J et al. Fructose-2,6-bisphosphate synthesis by 6-phosphofructo-2-kinase/fructose-2,6-bisphosphatase 4 (PFKFB4) is required for the glycolytic response to hypoxia and tumor growth. Oncotarget 2014 Aug. 30; 5(16):6670-86). Normal bronchial epithelial cells (NHBE) were obtained from Lonza and NHBE cells expressing telomerase, SV40 large T antigen and activated Ras (hT/LT/Ras) were a gift from Dr. B. J. Rollins, Dana Farber Cancer Institute. All cell lines were tested and found negative for mycoplasma (PCR Mycoplasma Detection Kit, ABM). Cell lines were grown in DMEM (A549, LNCaP, MDA-MB-231, LLC and PFKFB4^−/−), RPMI 1640 (H460, H1299, H441, H522) and McCoy's 5A media (HCT116) (all from Invitrogen) containing 10% fetal calf serum (Hyclone). NHBE and hT/LT/Ras cells were grown in BEGM containing SingleQuots (Lonza). All lines were cultured at 37° C. in 5% CO2. In certain experiments, 4-hydroxytamoxifen (4HT, Sigma-Aldrich) was added to PFKFB4^−/− fibroblasts at indicated concentrations.
(§3) Cells were incubated in 20% trypan blue (Sigma) for 5 minutes. Cells excluding trypan blue were counted using a standard hemocytometer (Hausser Scientific) to determine total numbers of viable cells. Data are expressed as mean±SD of three experiments.

H1299 = test: proliferation, viable cell count; type: cell-based, human; settings: H1299, over 48 hours
Description: as §2, §3

H441 = test: proliferation, viable cell count; type: cell-based, human; settings: H441, over 48 hours
Description: as §2, §3

H522 = test: proliferation, viable cell count; type: cell-based, human; settings: H522, over 48 hours
Description: as §2, §3

HCT116 = test: proliferation, viable cell count; type: cell-based, human; settings: HCT116, over 48 hours
Description: as §2, §3

LNCaP = test: proliferation, viable cell count; type: cell-based, human; settings: over 48 hours
Description: as §2, §3

MDA-MB-231 = test: proliferation, viable cell count; type: cell-based, human; settings: MDA-MB-231, over 48 hours
Description: as §2, §3

[2] = tested on: PFKFB4-/- lung fibroblasts; test: cell counts of tamoxifen-inducible PFKFB4-/- fibroblasts; type: cell-based, mouse; settings: 4HT-induced deletion, 10 μM 5MPN, 24 hours
Description: as §2, with “NHBE and hT/LT/Ras cells were grown in BEGM containing SingleQuots (Lonza). All lines were cultured at 37° C. in 5% CO2. In certain experiments, 4-hydroxytamoxifen (4HT, Sigma-Aldrich) was added to PFKFB4^−/− fibroblasts at indicated concentrations.” left out
as §3

[3] = pharmacokinetic profile after IV and oral administration; type: in vivo; settings: C57BL/6 mice
Protocol: The pharmacokinetic profile was determined in female C57BL/6 mice following IV and oral administration of 5MPN. Using only female mice lowered the animal numbers required for meaningful results without issues of potential gender differences in exposure. Eight time points (n=3/time point) were used to determine PK parameters calculated using WinNonLin v5.0. Plasma samples were extracted using acetonitrile and analyzed by LC/MS-MS using a PhenomexSynergi Polar-RP 4 micron 50×2.0 mm column eluted with a biphasic mobile phase (0.5% formic acid in acetonitrile and water).

[4] = two-week oral toxicity study; type: in vivo; settings: 120 mg/kg PO for two weeks
Protocol: Given the potential usefulness of oral administration in terms of cost and convenience, we elected to pursue this route in subsequent toxicity and efficacy pre-clinical studies. Initially, we dosed C57BL/6 mice with 120 mg/kg PO for two weeks and analyzed the effect on complete blood counts, electrolytes, hepatic and renal function, body mass and the gross and histological appearance of the brain, heart, lungs, liver, kidneys and spleen. […] Next, the effects of oral administration of 5MPN on intratumoral F2,6BP and glucose uptake by LLC xenografts was examined. There was a reduction in F2,6BP (FIG. 4E) and 2-[^18F]-fluoro-2-deoxyglucose uptake using positron emission tomography (FIG. 4F). It was confirmed that 5MPN caused a G1 arrest in LLC cells in vitro similar to H460 cells (FIG. 4G). The number of Ki67-positive cells was examined since Ki-67 expression correlated with later S and G2 phases of the cell cycle (SASAKI et al. “The cell cycle associated change of the Ki-67 reactive nuclear antigen expression” J Cell Physiol (1987) Vol. 133, No. 3, pp. 579-584).

[5] = tested on: H460 human lung adenocarcinoma xenografts; test: H460 xenograft growth in athymic mice; type: in vivo, BALB/c athymic mice
human cancer cell lines = test: proliferation, viable cell count by trypan blue exclusion; type: cell-based; settings: counts at 48 hours shown
Protocol: Method: Cells were plated in 24 well plates and exposed to increasing concentrations of Formula (VIII). DMSO was used as a vehicle. After 24, 48 and 72 hours of exposure, cells were detached, and viable cells were counted by Trypan blue exclusion (representative counts at 48 hours shown).

Chain of human recombinant PFKFB4 (Q16877 whole entry): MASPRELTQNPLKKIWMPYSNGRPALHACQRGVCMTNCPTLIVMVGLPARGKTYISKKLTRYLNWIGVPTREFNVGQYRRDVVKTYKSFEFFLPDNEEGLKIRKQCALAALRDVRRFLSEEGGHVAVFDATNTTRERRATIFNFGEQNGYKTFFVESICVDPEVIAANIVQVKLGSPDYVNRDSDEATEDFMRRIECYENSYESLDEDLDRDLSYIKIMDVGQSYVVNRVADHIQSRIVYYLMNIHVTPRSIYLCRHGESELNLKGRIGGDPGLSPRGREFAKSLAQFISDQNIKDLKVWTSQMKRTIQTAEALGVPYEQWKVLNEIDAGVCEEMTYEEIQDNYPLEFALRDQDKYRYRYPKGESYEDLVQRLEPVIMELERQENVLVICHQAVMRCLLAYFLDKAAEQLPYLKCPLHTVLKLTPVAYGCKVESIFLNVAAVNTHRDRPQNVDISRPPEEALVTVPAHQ

| Compound | type of inhibition (Lineweaver-Burk analyses) (human recombinant PFKFB4; as a function of F6P concentration, FIG. 1D) | PFKFB4 activity (human recombinant PFKFB4; kinase activity of recombinant PFKFB4, FIG. 1C) | inhibition of kinase activity (PFKFB3) | inhibition of a panel of 97 protein kinases [1] | growth (A549) | growth (H1299) | growth (H441) | growth (H522) | growth (HCT116) | growth (LNCaP) | growth (MDA-MB-231) | effect of genomic deletion of Pfkfb4 on anti-proliferative effect [2] | oral bioavailability [3] | concentrations reached by intravenous and oral administration ([3]; IV and oral, administered daily) | signs of toxicity (blood counts, electrolytes, hepatic and renal function, body mass, histology, behavior) [4] | tumor growth ([5]; 5MPN 120 mg/kg oral daily) | body weight ([5]; H460-bearing athymic mice, 120 mg/kg oral daily) | proliferation (cell counts relative to DMSO) (human cancer cell lines) |
| --- | --- | --- | --- | --- | --- | --- | --- | --- | --- | --- | --- | --- | --- | --- | --- | --- | --- | --- |
| COc1cccc2c(NCCCCCO[N+](=O)[O-])ccnc12 [5MPN, 5-[(8-methoxyquinolin-4-yl)amino]pentyl nitrate] | competitive inhibitor of the F6P binding site | inhibited PFKFB4 activity | did not inhibit | not inhibited | dose-dependent reduction in growth | dose-dependent reduction in growth | dose-dependent reduction in growth | dose-dependent reduction in growth | dose-dependent reduction in growth | dose-dependent reduction in growth | dose-dependent reduction in growth | sensitized | has oral bioavailability | adequate to achieve potentially therapeutic concentrations | no signs of toxicity | suppressed the growth | without affecting body weight |  |
| COc1cccc2c(NCCCCCNC(=O)C(F)(F)F)ccnc12 [Formula (VIII), 2,2,2-trifluoro-N-(5-((8-methoxyquinolin-4-yl)amino)pentyl)acetamide] |  |  |  |  |  |  |  |  |  |  |  |  |  |  |  |  |  | decreases the proliferation of human cancer cell lines in vitro with higher potency than 5MPN |
